# Patent US20240391936A1, “TETRAHYDROTHIENO PYRIDINE DERIVATIVES AS DDRS INHIBITORS” (CHIESI FARMACEUTICI S.P.A., priority 2021, published 2024)
# Key:
# DDR1 [1] = biological target: T1, DDR1 (Homo sapiens, UniProt Q08345); test: DDR1 cell based assay (PathHunter U2OS DDR1 assay); design: host or cells: U2OS-DDR1 (PathHunter); settings: U2OS-DDR1 cells, bovine Type II Collagen 20 μg/ml
# In short: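 Receptor activation measured by enzyme-fragment complementation luminescence in engineered U2OS cells. Compound added 30 min before overnight challenge with 20 μg/ml bovine collagen II; data scaled between vehicle and collagen-stimulated controls, IC50 derived by four-parameter variable-slope fitting.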
# DDR1 [2] = biological target: T1, DDR1; test: DDR1 binding assay (LanthaScreen Europium Kinase Binding assay); design: purchased Carna Biosciences; settings: binding assay, 5 nM DDR1, 20 nM Kinase Tracer 178; Ki from IC50 by Cheng-Prusoff; read-out: Ki DDR1
# In short: (§1)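 TR-FRET tracer-displacement format: 665/615 nm emission ratio (340 nm excitation) gave IC50 by 4-parameter fit, then Ki via Cheng-Prusoff. Each kinase at 5 nM with 2 nM Eu-anti-GST antibody and Tracer 178 (DDR1 20 nM, DDR2 10 nM), 1 h, room temperature, HEPES pH 7.5 buffer.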
# DDR2 = biological target: T2, DDR2 (Homo sapiens, UniProt Q16832); test: DDR2 binding assay (LanthaScreen Europium Kinase Binding assay); design: purchased Life Technologies; settings: binding assay, 5 nM DDR2, 10 nM Kinase Tracer 178; Ki from IC50 by Cheng-Prusoff; read-out: Ki DDR2
# T2 sequence (Q16832 22-855): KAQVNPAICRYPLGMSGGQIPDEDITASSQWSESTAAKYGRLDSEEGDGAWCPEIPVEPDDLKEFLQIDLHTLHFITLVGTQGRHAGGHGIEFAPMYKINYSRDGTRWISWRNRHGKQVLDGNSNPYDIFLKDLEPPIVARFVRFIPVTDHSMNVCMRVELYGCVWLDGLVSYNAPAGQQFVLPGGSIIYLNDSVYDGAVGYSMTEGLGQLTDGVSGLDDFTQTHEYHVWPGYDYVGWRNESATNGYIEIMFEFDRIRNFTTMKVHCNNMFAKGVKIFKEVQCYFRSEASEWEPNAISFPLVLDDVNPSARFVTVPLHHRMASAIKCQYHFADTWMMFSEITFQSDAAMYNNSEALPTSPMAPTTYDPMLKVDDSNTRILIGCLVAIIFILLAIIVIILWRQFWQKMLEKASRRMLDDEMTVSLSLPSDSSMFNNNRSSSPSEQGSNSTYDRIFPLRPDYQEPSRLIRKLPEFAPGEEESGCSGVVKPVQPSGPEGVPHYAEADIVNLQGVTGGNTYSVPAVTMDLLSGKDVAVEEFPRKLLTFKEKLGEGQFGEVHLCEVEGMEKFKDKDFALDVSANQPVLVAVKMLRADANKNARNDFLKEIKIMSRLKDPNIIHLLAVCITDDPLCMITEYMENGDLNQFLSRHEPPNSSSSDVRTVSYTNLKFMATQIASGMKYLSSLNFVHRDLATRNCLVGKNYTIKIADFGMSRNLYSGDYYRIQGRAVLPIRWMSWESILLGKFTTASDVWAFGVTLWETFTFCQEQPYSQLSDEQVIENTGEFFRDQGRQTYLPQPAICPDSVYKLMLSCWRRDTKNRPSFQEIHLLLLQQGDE
# In short: as §1
# T1 sequence (Q08345 19-913): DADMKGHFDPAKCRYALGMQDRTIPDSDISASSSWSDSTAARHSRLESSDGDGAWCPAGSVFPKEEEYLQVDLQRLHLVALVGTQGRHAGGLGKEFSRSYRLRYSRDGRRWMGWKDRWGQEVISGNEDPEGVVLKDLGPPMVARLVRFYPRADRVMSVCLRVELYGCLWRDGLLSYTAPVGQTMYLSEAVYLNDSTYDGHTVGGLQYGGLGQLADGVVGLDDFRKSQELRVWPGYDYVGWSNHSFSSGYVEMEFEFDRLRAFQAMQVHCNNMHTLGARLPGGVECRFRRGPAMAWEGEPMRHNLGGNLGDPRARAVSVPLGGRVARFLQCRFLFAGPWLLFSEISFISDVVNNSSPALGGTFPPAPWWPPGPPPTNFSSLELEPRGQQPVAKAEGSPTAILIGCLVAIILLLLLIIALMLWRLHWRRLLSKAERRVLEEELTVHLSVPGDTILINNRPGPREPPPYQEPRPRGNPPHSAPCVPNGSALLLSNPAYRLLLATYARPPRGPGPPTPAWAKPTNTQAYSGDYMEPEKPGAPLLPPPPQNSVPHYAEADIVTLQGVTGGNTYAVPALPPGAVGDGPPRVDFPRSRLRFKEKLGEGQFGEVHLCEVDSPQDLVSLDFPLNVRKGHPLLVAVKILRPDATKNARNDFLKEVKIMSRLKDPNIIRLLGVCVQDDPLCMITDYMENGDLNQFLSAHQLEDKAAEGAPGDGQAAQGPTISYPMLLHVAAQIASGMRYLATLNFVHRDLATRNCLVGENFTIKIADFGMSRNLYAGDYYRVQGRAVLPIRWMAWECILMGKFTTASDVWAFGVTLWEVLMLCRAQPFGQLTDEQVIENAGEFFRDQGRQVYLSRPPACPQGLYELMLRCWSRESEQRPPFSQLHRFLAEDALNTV
IC50 (DDR1 [1]),Ki (DDR1 [2]),Ki (DDR2),SMILES
< 25 nM,< 25 nM,< 25 nM,"O=C(Nc1cc(F)cc(C(F)(F)F)c1)c1csc2c1CCN(C(=O)c1cnn3cccnc13)C2 [Example 97, N-(3-fluoro-5-(trifluoromethyl)phenyl)-6-(pyrazolo[1,5-a]pyrimidine-3-carbonyl)-4,5,6,7-tetrahydrothieno[2,3-c]pyridine-3-carboxamide]"
< 25 nM,< 25 nM,< 25 nM,"CC(C)(C)c1cc(NC(=O)c2csc3c2CCN(Cc2cnc4ccnn4c2)C3)on1 [Example 156, N-(3-(tert-butyl)isoxazol-5-yl)-6-(pyrazolo[1,5-a]pyrimidin-6-ylmethyl)-4,5,6,7-tetrahydrothieno[2,3-c]pyridine-3-carboxamide]"
25 to 50 nM,< 25 nM,< 25 nM,"CC(C)(c1cc(NC(=O)c2csc3c2CCN(C(=O)c2cnn4ccncc24)C3)no1)C(F)(F)F [Example 126, 6-(pyrazolo[1,5-a]pyrazine-3-carbonyl)-N-(5-(1,1,1-trifluoro-2-methylpropan-2-yl)isoxazol-3-yl)-4,5,6,7-tetrahydrothieno[2,3-c]pyridine-3-carboxamide]"
50 to 80 nM,< 25 nM,< 25 nM,"O=C(Nc1cccc(C(F)(F)F)c1)c1csc2c1CCN(Cc1cnc3cccnn13)C2 [Example 87, 6-(imidazo[1,2-b]pyridazin-3-ylmethyl)-N-(3-(trifluoromethyl)phenyl)-4,5,6,7-tetrahydrothieno[2,3-c]pyridine-3-carboxamide]"
< 25 nM,< 25 nM,< 25 nM,"O=C(Nc1cccc(C(F)(F)F)c1)c1csc2c1CCN(Cc1cnn3cccnc13)C2 [Example 89, 6-(pyrazolo[1,5-a]pyrimidin-3-ylmethyl)-N-(3-(trifluoromethyl)phenyl)-4,5,6,7-tetrahydrothieno[2,3-c]pyridine-3-carboxamide]"
< 25 nM,< 25 nM,< 25 nM,"O=C(Nc1cccc(C(F)(F)F)c1)c1csc2c1CCN(C(=O)c1cnc3ccc(OCCO)cn13)C2 [Example 137, 6-(6-(2-hydroxyethoxy)imidazo[1,2-a]pyridine-3-carbonyl)-N-(3-(trifluoromethyl)phenyl)-4,5,6,7-tetrahydrothieno[2,3-c]pyridine-3-carboxamide]"
25 to 50 nM,< 25 nM,< 25 nM,"CN(C)[C@@H]1CCN(Cc2cc(NC(=O)c3csc4c3CCN(Cc3cnc5ccnn5c3)C4)cc(C(F)(F)F)c2)C1 [Example 161, (R)-N-(3-((3-(dimethylamino)pyrrolidin-1-yl)methyl)-5-(trifluoromethyl)phenyl)-6-(pyrazolo[1,5-a]pyrimidin-6-ylmethyl)-4,5,6,7-tetrahydrothieno[2,3-c]pyridine-3-carboxamide]"
< 25 nM,< 25 nM,< 25 nM,"CC1c2scc(C(=O)Nc3cccc(C(F)(F)F)c3)c2CCN1Cc1cnc2[nH]ccc2c1 (single isomer, unassigned) [Example 107, 6-((1H-pyrrolo[2,3-b]pyridin-5-yl)methyl)-7-methyl-N-(3-(trifluoromethyl)phenyl)-4,5,6,7-tetrahydrothieno[2,3-c]pyridine-3-carboxamide]"
25 to 50 nM,< 25 nM,< 25 nM,"Cn1nc(NC(=O)c2csc3c2CCN(C(=O)c2cnn4ccncc24)C3)cc1C(C)(C)C [Example 116, N-(5-(tert-butyl)-1-methyl-1H-pyrazol-3-yl)-6-(pyrazolo[1,5-a]pyrazine-3-carbonyl)-4,5,6,7-tetrahydrothieno[2,3-c]pyridine-3-carboxamide]"
25 to 50 nM,< 25 nM,< 25 nM,"CC(C)(C)c1cc(NC(=O)c2csc3c2CCN(C(=O)c2cnn4ccncc24)C3)on1 [Example 113, N-(3-(tert-butyl)isoxazol-5-yl)-6-(pyrazolo[1,5-a]pyrazine-3-carbonyl)-4,5,6,7-tetrahydrothieno[2,3-c]pyridine-3-carboxamide]"

# More lines, now with the values behind:
SMILES,IC50 (DDR1 [1]),Ki (DDR1 [2]),Ki (DDR2)
"O=C(Nc1cc(C(F)(F)F)ccn1)c1csc2c1CCN(C(=O)c1cnc3ccccn13)C2 [Example 29, 6-(imidazo[1,2-a]pyridine-3-carbonyl)-N-(4-(trifluoromethyl)pyridin-2-yl)-4,5,6,7-tetrahydrothieno[2,3-c]pyridine-3-carboxamide]",50 to 80 nM,< 25 nM,< 25 nM
"O=C(Nc1cncc(C(F)(F)F)c1)c1csc2c1CCN(C(=O)c1cnc3ccccn13)C2 [Example 28, 6-(imidazo[1,2-a]pyridine-3-carbonyl)-N-(5-(trifluoromethyl)pyridin-3-yl)-4,5,6,7-tetrahydrothieno[2,3-c]pyridine-3-carboxamide]",< 25 nM,< 25 nM,< 25 nM
"O=C(Nc1cc(CN2CCCCC2)cc(C(F)(F)F)c1)c1csc2c1CCN(C(=O)c1cnc3ccccn13)C2 [Example 60, 6-(imidazo[1,2-a]pyridine-3-carbonyl)-N-(3-(piperidin-1-ylmethyl)-5-(trifluoromethyl)phenyl)-4,5,6,7-tetrahydrothieno[2,3-c]pyridine-3-carboxamide]",50 to 80 nM,< 25 nM,< 25 nM
"Cc1cn(-c2cc(NC(=O)c3csc4c3CCN(Cc3cnc5ccccn35)C4)cc(C(F)(F)F)c2)cn1 [Example 65, 6-(imidazo[1,2-a]pyridin-3-ylmethyl)-N-(3-(4-methyl-11H-imidazol-1-yl)-5-(trifluoromethyl)phenyl)-4,5,6,7-tetrahydrothieno[2,3-c]pyridine-3-carboxamide]",50 to 80 nM,< 25 nM,< 25 nM
"O=C(Nc1cc(CN2CCC23COC3)cc(C(F)(F)F)c1)c1csc2c1CCN(C(=O)c1cnc3ccccn13)C2 [Example 49, N-(3-((6-oxa-1-azaspiro[3.3]heptan-1-yl)methyl)-5-(trifluoromethyl)phenyl)-6-(imidazo[1,2-a]pyridine-3-carbonyl)-4,5,6,7-tetrahydrothieno[2,3-c]pyridine-3-carboxamide]",< 25 nM,< 25 nM,< 25 nM
"CC(C)(C)c1cc(NC(=O)c2csc3c2CCN(C(=O)c2cnc4ccccn24)C3)ccn1 [Example 37, N-(2-(tert-butyl)pyridin-4-yl)-6-(imidazo[1,2-a]pyridine-3-carbonyl)-4,5,6,7-tetrahydrothieno[2,3-c]pyridine-3-carboxamide]",25 to 50 nM,< 25 nM,< 25 nM
"CN(C)[C@H]1CCN(Cc2cc(NC(=O)c3csc4c3CCN(C(=O)c3cnc5ccccn35)C4)cc(C(F)(F)F)c2)C1 [Example 44, (S)-N-(3-((3-(dimethylamino)pyrrolidin-1-yl)methyl)-5-(trifluoromethyl)phenyl)-6-(imidazo[1,2-a]pyridine-3-carbonyl)-4,5,6,7-tetrahydrothieno[2,3-c]pyridine-3-carboxamide]",25 to 50 nM,< 25 nM,< 25 nM
"CN(C)[C@@H]1CCN(Cc2cc(NC(=O)c3csc4c3CCN(C(=O)c3cnc5ccccn35)C4)cc(C(F)(F)F)c2)C1 [Example 45, (R)-N-(3-((3-(dimethylamino)pyrrolidin-1-yl)methyl)-5-(trifluoromethyl)-phenyl)-6-(imidazo[1,2-a]pyridine-3-carbonyl)-4,5,6,7-tetrahydrothieno[2,3-c]pyridine-3-carboxamide]",25 to 50 nM,< 25 nM,< 25 nM
"Cn1nc(C(C)(C)C)cc1NC(=O)c1csc2c1CCN(Cc1cnc3[nH]ncc3c1)C2 [Example 77, 6-((1H-pyrazolo[3,4-b]pyridin-5-yl)methyl)-N-(3-(tert-butyl)-1-methyl-1H-pyrazol-5-yl)-4,5,6,7-tetrahydrothieno[2,3-c]pyridine-3-carboxamide]",< 25 nM,< 25 nM,< 25 nM
